Experimental data: US11440935B2, “3″,5″-dimethoxybenzoyl-3′-amino-3′-deoxy adenosine-5′-triphosphates and pharmaceutical uses thereof” (Danmir Therapeutics, LLC, priority 2018, dated 2022)

Legend:
P2Y1 = target: T1, P2Y1 (Homo sapiens, UniProt P47900); experiment: PDSP functional assay in vitro (PRESTO-Tango), agonist/antagonist; assay type: cell-based
T1 construct: expressed in transfected cells
Description: (§1) The assays were carried out utilizing the method set forth in Kroeze et al., PRESTO-Tango as an open-source resource for interrogation of the druggable human GPCRome, Nat. Struct. Mol. Biol. 2015 May; 22(5):362-9.

P2Y12 = target: T2, P2Y12 (Homo sapiens, UniProt Q9H244); experiment: as above; assay type: cell-based
T2 construct: expressed in transfected cells
T2 sequence (Q9H244 whole entry): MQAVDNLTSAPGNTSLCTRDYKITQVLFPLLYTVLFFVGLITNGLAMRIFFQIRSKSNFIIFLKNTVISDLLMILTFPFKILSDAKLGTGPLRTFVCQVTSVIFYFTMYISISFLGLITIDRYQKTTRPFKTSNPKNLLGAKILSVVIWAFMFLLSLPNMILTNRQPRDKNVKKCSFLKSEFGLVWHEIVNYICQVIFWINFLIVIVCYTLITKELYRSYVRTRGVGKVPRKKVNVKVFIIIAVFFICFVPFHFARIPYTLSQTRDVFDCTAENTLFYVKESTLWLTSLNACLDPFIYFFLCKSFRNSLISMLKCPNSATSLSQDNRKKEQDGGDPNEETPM
Description: as §1

P2Y13 = target: T3, P2Y13 (Homo sapiens, UniProt Q9BPV8); experiment: as above; assay type: cell-based
T3 construct: expressed in transfected cells
T3 sequence (Q9BPV8 1-354): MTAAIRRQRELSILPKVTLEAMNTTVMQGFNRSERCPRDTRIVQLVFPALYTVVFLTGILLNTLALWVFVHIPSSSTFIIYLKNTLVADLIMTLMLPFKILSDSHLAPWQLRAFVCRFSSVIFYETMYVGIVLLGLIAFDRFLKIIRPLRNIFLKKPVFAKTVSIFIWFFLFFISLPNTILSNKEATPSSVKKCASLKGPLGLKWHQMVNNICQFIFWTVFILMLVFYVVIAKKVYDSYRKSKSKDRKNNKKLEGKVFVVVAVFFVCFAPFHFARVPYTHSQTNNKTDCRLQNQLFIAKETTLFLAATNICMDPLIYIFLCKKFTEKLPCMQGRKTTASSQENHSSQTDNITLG
Description: as §1

P2Y14 = target: T4, P2Y14 (Homo sapiens, UniProt Q15391); experiment: as above; assay type: cell-based
T4 construct: expressed in transfected cells
T4 sequence (Q15391 1-338): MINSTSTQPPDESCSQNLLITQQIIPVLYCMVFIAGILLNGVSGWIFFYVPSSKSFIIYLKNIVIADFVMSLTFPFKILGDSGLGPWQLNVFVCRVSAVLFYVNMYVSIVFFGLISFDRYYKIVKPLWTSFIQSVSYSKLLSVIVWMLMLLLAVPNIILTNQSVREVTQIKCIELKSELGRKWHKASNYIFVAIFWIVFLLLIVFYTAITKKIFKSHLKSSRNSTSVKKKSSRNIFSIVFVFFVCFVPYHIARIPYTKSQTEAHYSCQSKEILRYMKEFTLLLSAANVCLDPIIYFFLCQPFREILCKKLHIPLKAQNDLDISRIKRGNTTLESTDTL
Description: as §1

P2Y2 = target: T5, P2Y2 (Homo sapiens, UniProt P41231); experiment: as above; assay type: cell-based
T5 construct: expressed in transfected cells
T5 sequence (P41231 whole entry): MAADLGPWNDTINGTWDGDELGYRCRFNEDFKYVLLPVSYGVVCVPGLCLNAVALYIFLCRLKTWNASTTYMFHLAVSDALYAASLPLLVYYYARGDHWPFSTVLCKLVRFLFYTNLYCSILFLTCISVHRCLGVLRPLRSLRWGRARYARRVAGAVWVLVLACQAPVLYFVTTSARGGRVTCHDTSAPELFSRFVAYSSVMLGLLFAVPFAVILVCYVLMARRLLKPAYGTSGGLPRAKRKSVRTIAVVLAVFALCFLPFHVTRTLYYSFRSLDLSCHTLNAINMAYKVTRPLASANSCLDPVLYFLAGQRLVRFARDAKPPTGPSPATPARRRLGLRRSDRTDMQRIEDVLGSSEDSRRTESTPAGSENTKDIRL
Description: as §1

P2Y4 = target: T6, P2Y4 (Homo sapiens, UniProt P51582); experiment: as above; assay type: cell-based
T6 construct: expressed in transfected cells
T6 sequence (P51582 whole entry): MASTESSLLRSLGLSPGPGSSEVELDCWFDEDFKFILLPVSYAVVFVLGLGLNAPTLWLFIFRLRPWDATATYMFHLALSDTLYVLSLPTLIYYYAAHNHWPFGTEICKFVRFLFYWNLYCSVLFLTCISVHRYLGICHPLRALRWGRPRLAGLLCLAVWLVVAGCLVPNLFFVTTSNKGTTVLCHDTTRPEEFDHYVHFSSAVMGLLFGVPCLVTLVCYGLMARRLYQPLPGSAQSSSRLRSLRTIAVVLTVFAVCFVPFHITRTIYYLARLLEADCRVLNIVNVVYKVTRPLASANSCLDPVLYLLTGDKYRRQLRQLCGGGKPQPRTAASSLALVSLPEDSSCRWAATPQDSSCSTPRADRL
Description: as §1

P2Y6 = target: T7, P2Y6 (Homo sapiens, UniProt Q15077); experiment: as above; assay type: cell-based
T7 construct: expressed in transfected cells
T7 sequence (Q15077 whole entry): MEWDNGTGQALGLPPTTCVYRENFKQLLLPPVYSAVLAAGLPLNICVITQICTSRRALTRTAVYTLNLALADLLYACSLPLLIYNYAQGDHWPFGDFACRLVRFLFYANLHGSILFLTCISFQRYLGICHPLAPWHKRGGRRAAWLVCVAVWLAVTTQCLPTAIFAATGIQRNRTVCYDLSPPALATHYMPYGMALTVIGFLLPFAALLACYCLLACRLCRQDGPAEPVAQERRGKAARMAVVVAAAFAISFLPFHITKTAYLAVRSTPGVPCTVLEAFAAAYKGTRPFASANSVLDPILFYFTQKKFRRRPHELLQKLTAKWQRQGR
Description: as §1

anesthetized guinea-pigs = experiment: ATP-induced bronchoconstriction in anesthetized guinea-pig (tracheal pressure); assay type: in vivo; conditions: pretreatment with aerosolized DT-0111, anesthetized guinea-pigs
Description: Male Dunkin-Hartley guinea pigs (GPs) (220-250 g, Charles River) were quarantined for 14 days. The housing room was constantly ventilated, and the temperature kept at 23° C. Mean body weight of the GPs on day of experiment was 336.0±9.9 g. Anesthesia were induced by using a mixture of ketamine+xylazine (40-80 mg/kg+5-10 mg/kg; IM) as previously published (Zhuang, et al., “High-Frequency Electrical Stimulatino of Cervical Vagi Reduces Airway Response to Methacholine,” World J. of Respirology 2013 Jul. 28; 3(2): 11-19). Supplementary anesthetic doses (¼-½ of the original dose) were administered as needed if ear pinch changed respiratory rate and/or upon the manifestation of an accelerated heart rate. Body temperature was monitored continuously with a rectal thermometer and maintained at approximately 36.5° C. using a heating pad and lamp. […]
The side branch of the tracheal cannulation was connected a pressure transducer. The pressure signal was pre-amplified by a bridge amplifier (AD Instruments Inc., CO) and then digitized and recorded. […] The pressure signal and animal rectal temperature were monitored and digitally recorded continuously in computer files throughout the experiment using the PowerLab/8 sp data acquisition system (AD Instruments) with DELL XPS 8700 computer equipped with Microsoft Windows 7 and LabChart Pro 7 software. […]

T1 sequence (P47900 whole entry): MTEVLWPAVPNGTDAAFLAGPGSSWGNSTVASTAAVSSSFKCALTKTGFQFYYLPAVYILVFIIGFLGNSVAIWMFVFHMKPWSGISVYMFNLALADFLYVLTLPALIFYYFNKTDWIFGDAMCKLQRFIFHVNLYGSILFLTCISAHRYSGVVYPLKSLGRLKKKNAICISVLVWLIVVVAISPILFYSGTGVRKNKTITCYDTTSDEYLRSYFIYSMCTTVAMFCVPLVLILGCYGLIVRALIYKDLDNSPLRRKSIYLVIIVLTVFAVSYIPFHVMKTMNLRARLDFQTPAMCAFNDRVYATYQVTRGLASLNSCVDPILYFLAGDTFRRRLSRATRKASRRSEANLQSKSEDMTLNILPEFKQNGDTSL

## Sodium 3′-N-(3,5-dimethoxybenzoyl)-3′-deoxy-β-D-adenosine 5′-triphosphate [DT-0111]
P2Y1
  agonist or antagonist action at receptor: does not act as an agonist or antagonist
P2Y12
  agonist or antagonist action at receptor: does not act as an agonist or antagonist
P2Y13
  agonist or antagonist action at receptor: does not act as an agonist or antagonist
P2Y14
  agonist or antagonist action at receptor: does not act as an agonist or antagonist
P2Y2
  agonist or antagonist action at receptor: does not act as an agonist or antagonist
P2Y4
  agonist or antagonist action at receptor: does not act as an agonist or antagonist
P2Y6
  agonist or antagonist action at receptor: does not act as an agonist or antagonist
Anesthetized guinea-pigs
  tracheal pressure (Ptr) after ATP doses: significantly suppressed
